Results on three compounds are retold here after patent US4198504A, “[3-(Pyridinium)-7-(naphthyiridinyl carbonylamino)acetamido]cephalosporanic acid derivatives” (Bristol-Myers Company, priority 1978, dated 1980).

In one data set the test system is Pseudomonas aeruginosa. Kind of data set: In vitro MIC, serial two-fold agar dilution, secondary evaluation against Pseudomonas aeruginosa strains. Conditions: CBPC = 100%; geometric mean of MICs; 61-64 strains. The class given is cell-based. The procedure, abridged:
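Two-fold serial agar dilution on Mueller-Hinton agar (Steers' apparatus) against 64 P. aeruginosa strains. Values are relative activity versus carbenicillin set at 100%, based on geometric mean MICs.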
(In agar dilution the substance is mixed into plates at graded concentrations.)

In another data set the test system is S. aureus. Nature of the data set: In vitro MIC, serial two-fold agar dilution, primary evaluation Gp (S. aureus, 6 strains). The class given is cell-based. The conditions noted are these: CBPC = 100%; geometric mean of MICs; Mueller-Hinton agar. The gist of the method: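 Two-fold serial agar dilution on Mueller-Hinton agar (Steers' replicator); GP group is 6 S. aureus strains. Values are relative activity versus carbenicillin (set at 100%), calculated from the geometric mean of the group's MICs.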

The nature of data set [1]: Antibiotic blood levels in mice following intramuscular administration (paper disc-agar diffusion, Escherichia coli NIHJ as assay organism). The format is in vivo. Conditions: mouse, im, I.M., 20 mg./kg.; for half-life: read-out: Blood level, Half-life; for Cmax: read-out: Blood level, Peak Concentration. Here is the method:
Antibiotic blood levels were determined in mice following intramuscular administration of the test compounds at 20 mg./kg. The blood samples were collected from the orbital sinuses into heparinized capillary tubes at 15, 30, 60 and 120 minutes after administration. The antibiotic concentration was determined by the paper disc-agar diffusion method using Escherichia coli NIHJ as the assay organism.
Background: A growth-free zone around the sample is the usual read-out of agar diffusion tests.

Another data set deals with Escherichia coli Juhl. Nature of the data set: In vivo efficacy, experimental infection in mice, intramuscular treatment, Escherichia coli Juhl. Also noted: species or system Escherichia coli (infected mice). Conditions: im, 120 h, I.M., 100×LD50 challenge i.p., 5 days, read-out: PD50 Escherichia coli Juhl. Here is the method: (§1) The in vivo efficacy was evaluated by intramuscular treatment against three kinds of experimental infection in mice.
(§2) The in vivo tests were carried out using the following three pathogenic organisms:
(§3) Mice were challenged intraperitoneally with approximately a 100×LD50 dose of the pathogens in a 5% mucin suspension. The mice were treated with test compound by I.M. route immediately after the bacterial challenge.

Another data set relates to Ps. aeruginosa. Nature of the data set: In vitro MIC, serial two-fold agar dilution, primary evaluation Ps (6 strains). The format is cell-based. The conditions noted are these: CBPC = 100%; geometric mean of MICs; Mueller-Hinton agar. The procedure, abridged:
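MIC by serial two-fold agar dilution on Mueller-Hinton agar (Steers' apparatus) against 6 Pseudomonas aeruginosa strains in primary screening. Values expressed as relative activity versus carbenicillin set at 100%, based on geometric mean MIC.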

Data set [2] deals with Pseudomonas aeruginosa A9843. Nature of the data set: In vivo efficacy, experimental infection in mice, intramuscular treatment, Pseudomonas aeruginosa A9843. The conditions noted are these: A9843, im, 120 h, I.M., 100×LD50 challenge i.p., 5 days, read-out: PD50 Pseudomonas aeruginosa A9843. Also noted: species or system Pseudomonas aeruginosa (infected mice). Here is the method:
as §1, §2
Pseudomonas aeruginosa A9843
as §3

The test system of data set [3] is Staphylococcus aureus Smith. Kind of data set: In vivo efficacy, experimental infection in mice, intramuscular treatment, Staphylococcus aureus Smith. Conditions: im, 120 h, I.M., 100×LD50 challenge i.p., 5 days, read-out: PD50 Staphylococcus aureus Smith. Also noted: species or system Staphylococcus aureus (infected mice). Here is the method:
as §1, §2
Staphylococcus aureus Smith
as §3

Data set [4] deals with Ent. cloacae (3), Pr. vulgaris (1), Pr. morganii (1), S. marcescen (1). Kind of data set: In vitro MIC, serial two-fold agar dilution, primary evaluation Gn-II (Ent. cloacae, Pr. vulgaris, Pr. morganii, S. marcescens). The class given is cell-based. Conditions: CBPC = 100%; geometric mean of MICs; Mueller-Hinton agar. The procedure, abridged:
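MICs by two-fold serial agar dilution on Mueller-Hinton agar with a Steers replicator. Reported as activity relative to carbenicillin set at 100%, computed from geometric mean MICs over the strains in each group.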

The test system of data set [5] is E. coli (9), Klebsiella sp. (2), Pr. mirabilis (1), Sal. enteritidis (1). Nature of the data set: In vitro MIC, serial two-fold agar dilution, primary evaluation Gn-I (E. coli, Klebsiella sp., Pr. mirabilis, Sal. enteritidis). The class given is cell-based. The conditions noted are these: CBPC = 100%; geometric mean of MICs; Mueller-Hinton agar. The procedure, abridged:
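Two-fold serial agar dilution on Mueller-Hinton agar, inoculated with a Steers' replicator. Activity is expressed relative to carbenicillin set at 100%. Values are based on the geometric mean MIC per organism group.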

In general, half-life refers to the time in which the quantity being followed falls by half. For the compound `O=C(O)CSc1cc[n+](CC2=C(C(=O)[O-])N3C(=O)C(NC(=O)[C@H](NC(=O)c4cnc5cccnc5c4O)c4ccc(O)cc4)C3SC2)cc1` (stereo partly drawn) [BB-S599, 7-[D-α-(4-Hydroxy-1,5-naphthyridine-3-carboxamido)-α-(4-hydroxyphenyl)acetamido]-3-(4-carboxymethylthiopyridinium)-methyl-3-cephem-4-carboxylate], in the data set on Pseudomonas aeruginosa, the “In vitro relative activity, secondary, Pseudomonas aeruginosa (61-64)” value (shortened to “In vitro relative activity, secondary”) amounted to 2010%. Moreover, in the data set on S. aureus, the “In vitro relative activity, primary evaluation Gp (6)” value amounted to 35%. Besides, the half-life in [1] was 54 min. Besides, in data set [1], the Cmax amounted to 7800 ng/mL. Also, the ED50 stood at 2.4 mg/kg in the data set with Escherichia coli Juhl, 8.4 mg/kg in data set [2] and 2.2 mg/kg in data set [3]. For the same compound, the “In vitro relative activity, primary evaluation Ps (6)” value in the data set on Ps. aeruginosa stood at 2180%. For the same compound, the “In vitro relative activity, primary evaluation Gn-II (6)” value in [4] was found to be 83%. Further, the “In vitro relative activity, primary evaluation Gn-I (13)” value (shortened to “In vitro relative activity … (13)”) in data set [5] stood at 260%.

With `O=C([O-])C1=C(C[n+]2cccc(S(=O)(=O)O)c2)CSC2C(NC(=O)[C@H](NC(=O)c3cnc4cccnc4c3O)c3ccc(O)c(O)c3)C(=O)N12` (stereo partly drawn) [BB-S609, 7-[D-α-(4-Hydroxy-1,5-naphthyridine-3-carboxamido)-α-(3,4-dihydroxyphenyl)acetamido]-3-(3-sulfopyridinium)methyl-3-cephem-4-carboxylate], the “In vitro relative activity, secondary” value with Pseudomonas aeruginosa is listed as 1375%. Further, the “In vitro relative activity, primary evaluation Gp (6)” value in the data set on S. aureus came out at 18%. Also, in data set [1], the half-life was found to be 51 min. In data set [1], the Cmax was determined as 7400 ng/mL. Besides, the ED50 with Escherichia coli Juhl was 1.8 mg/kg; in data set [2], 1.2 mg/kg; in [3], 17 mg/kg. In addition, in the data set with Ps. aeruginosa, the “In vitro relative activity, primary evaluation Ps (6)” value is given as 1450%. Also, the “In vitro relative activity, primary evaluation Gn-II (6)” value in data set [4] worked out at 11%. Besides, the “In vitro relative activity … (13)” value in data set [5] is 53%.

Consider `O=C([O-])C1=C(C[n+]2ccc(CCS(=O)(=O)O)cc2)CSC2C(NC(=O)[C@H](NC(=O)c3cnc4cccnc4c3O)c3ccc(O)cc3)C(=O)N12` (stereo partly drawn) [BB-S588, 7-[D-α-(4-Hydroxy-1,5-naphthyridine-3-carboxamido)-α-(4-hydroxyphenyl)acetamido]-3-(4-sulfoethylpyridinium)methyl-3-cephem-4-carboxylate], for which, in the data set on Pseudomonas aeruginosa, the “In vitro relative activity, secondary” value worked out at 2030%. Also, the “In vitro relative activity, primary evaluation Gp (6)” value in the data set with S. aureus was found to be 45%. Also, in data set [1], the half-life was determined as 59 min. In data set [1], the Cmax came out at 4400 ng/mL. Further, the ED50 in the data set on Escherichia coli Juhl was determined as 1.56 mg/kg; in data set [2] it was 6.8 mg/kg; in data set [3], 5 mg/kg. Also, in the data set with Ps. aeruginosa, the “In vitro relative activity, primary evaluation Ps (6)” value is on record as 1767%. The “In vitro relative activity, primary evaluation Gn-II (6)” value in [4] amounted to 45%. Besides, the “In vitro relative activity … (13)” value in data set [5] is recorded as 350%.
